Test results reported in PubChem BioAssay AID1963852 (Molecular Pharmacology Branch, DTP, NCI, 2024).
pIC50: −log10 of the molar value.

Test system: 282377-053-R-J1-PDC complex spheroid viability
Experiment: Anticancer human tumor 282377-053-R-J1-PDC patient-derived colon adenocarcinoma cell line growth inhibition [POLQ]
Conditions: for pIC50: curve of first compound; for viability, T/C: stronger effect = lower value
Summary of the method: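 Patient-derived tumour cells were co-cultured with HUVEC and mesenchymal stem cells as multicellular spheroids at 37 °C. They were treated with POLQ inhibitors (novobiocin, ART-558, RP6685) alone or combined with other agents. Top concentrations were at or near clinical Cmax (otherwise 10 microM; SN-38 at 1 microM), decreasing in half-log steps.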

[1] = second compound 0.0316 µM, first compound 0.0316 µM
[2] = second compound 0.0316 µM, first compound 0.1 µM
[3] = second compound 0.0316 µM, first compound 0.316 µM
[4] = second compound 0.0316 µM, first compound 1 µM
[5] = second compound 0.0316 µM, first compound 3.16 µM
[6] = second compound 0.0316 µM, first compound 10 µM
[7] = second compound 0.1 µM, first compound 0.0316 µM
[8] = second compound 0.1 µM, first compound 0.1 µM
[9] = second compound 0.1 µM, first compound 0.316 µM
[10] = second compound 0.1 µM, first compound 1 µM
[11] = second compound 0.1 µM, first compound 3.16 µM
[12] = second compound 0.1 µM, first compound 10 µM
[13] = second compound 0.316 µM, first compound 0.0316 µM
[14] = second compound 0.316 µM, first compound 0.1 µM
[15] = second compound 0.316 µM, first compound 0.316 µM
[16] = second compound 0.316 µM, first compound 1 µM
[17] = second compound 0.316 µM, first compound 3.16 µM
[18] = second compound 0.316 µM, first compound 10 µM
[19] = second compound 1 µM, first compound 0.0316 µM
[20] = second compound 1 µM, first compound 0.1 µM
[21] = second compound 1 µM, first compound 0.316 µM
[22] = second compound 1 µM, first compound 1 µM
[23] = second compound 1 µM, first compound 3.16 µM
[24] = second compound 1 µM, first compound 10 µM
[25] = second compound 3.16 µM, first compound 0.0316 µM
[26] = second compound 3.16 µM, first compound 0.1 µM
[27] = second compound 3.16 µM, first compound 0.316 µM
[28] = second compound 3.16 µM, first compound 1 µM
[29] = second compound 3.16 µM, first compound 3.16 µM
[30] = second compound 3.16 µM, first compound 10 µM
[31] = second compound 10 µM, first compound 0.0316 µM
[32] = second compound 10 µM, first compound 0.1 µM
[33] = second compound 10 µM, first compound 0.316 µM
[34] = second compound 10 µM, first compound 1 µM
[35] = second compound 10 µM, first compound 3.16 µM
[36] = second compound 10 µM, first compound 10 µM
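Note: spheroids exposed to compounds for seven days.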
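Throughout, for viability, T/C: 100% = DMSO vehicle control viability.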

Compound: CC(=O)O[C@H]1C(=O)[C@@]2(C)[C@H]([C@H](OC(=O)c3ccccc3)[C@]3(O)C[C@H](OC(=O)[C@H](O)[C@@H](NC(=O)c4ccccc4)c4ccccc4)C(C)=C1C3(C)C)[C@]1(OC(C)=O)CO[C@@H]1C[C@@H]2O + Cc1cccc(N(C)C(=O)C2C(O)CCN2c2nc(C)cc(C(F)(F)F)c2C#N)c1
- pIC50 (second compound 0.0316 µM): 7.56
- pIC50 (second compound 0.1 µM): 7.55
- pIC50 (second compound 0.316 µM): 7.59
- pIC50 (second compound 1 µM): 7.56
- pIC50 (second compound 3.16 µM): 7.55
- pIC50 (second compound 10 µM): 7.57
- viability, T/C (second compound 0.0316 µM, first compound 0.00949 µM): 103%
- viability, T/C (second compound 0.0316 µM, first compound 0.03 µM): 44.3%
- viability, T/C (second compound 0.0316 µM, first compound 0.0949 µM): 40.6%
- viability, T/C (second compound 0.0316 µM, first compound 0.3 µM): 43%
- viability, T/C (second compound 0.0316 µM, first compound 0.949 µM): 45.6%
- viability, T/C (second compound 0.0316 µM, first compound 3 µM): 57.6%
- viability, T/C (second compound 0.1 µM, first compound 0.00949 µM): 90.3%
- viability, T/C (second compound 0.1 µM, first compound 0.03 µM): 47.5%
- viability, T/C (second compound 0.1 µM, first compound 0.0949 µM): 43.4%
- viability, T/C (second compound 0.1 µM, first compound 0.3 µM): 40.9%
- viability, T/C (second compound 0.1 µM, first compound 0.949 µM): 44.8%
- viability, T/C (second compound 0.1 µM, first compound 3 µM): 53%
- viability, T/C (second compound 0.316 µM, first compound 0.00949 µM): 98.8%
- viability, T/C (second compound 0.316 µM, first compound 0.03 µM): 42.5%
- viability, T/C (second compound 0.316 µM, first compound 0.0949 µM): 38.5%
- viability, T/C (second compound 0.316 µM, first compound 0.3 µM): 37.5%
- viability, T/C (second compound 0.316 µM, first compound 0.949 µM): 45.4%
- viability, T/C (second compound 0.316 µM, first compound 3 µM): 51.4%
- viability, T/C (second compound 1 µM, first compound 0.00949 µM): 92.3%
- viability, T/C (second compound 1 µM, first compound 0.03 µM): 44.9%
- viability, T/C (second compound 1 µM, first compound 0.0949 µM): 37.2%
- viability, T/C (second compound 1 µM, first compound 0.3 µM): 45.6%
- viability, T/C (second compound 1 µM, first compound 0.949 µM): 48.8%
- viability, T/C (second compound 1 µM, first compound 3 µM): 56.7%
- viability, T/C (second compound 3.16 µM, first compound 0.00949 µM): 99.5%
- viability, T/C (second compound 3.16 µM, first compound 0.03 µM): 47.2%
- viability, T/C (second compound 3.16 µM, first compound 0.0949 µM): 39.5%
- viability, T/C (second compound 3.16 µM, first compound 0.3 µM): 44.5%
- viability, T/C (second compound 3.16 µM, first compound 0.949 µM): 45.2%
- viability, T/C (second compound 3.16 µM, first compound 3 µM): 54.2%
- viability, T/C (second compound 10 µM, first compound 0.00949 µM): 95%
- viability, T/C (second compound 10 µM, first compound 0.03 µM): 43.1%
- viability, T/C (second compound 10 µM, first compound 0.0949 µM): 37.8%
- viability, T/C (second compound 10 µM, first compound 0.3 µM): 40.7%
- viability, T/C (second compound 10 µM, first compound 0.949 µM): 46.4%
- viability, T/C (second compound 10 µM, first compound 3 µM): 58.1%

Compound: Nc1ccn(C2OC(CO)C(O)C2(F)F)c(=O)n1 (stereo unspecified) + Cc1cccc(N(C)C(=O)C2C(O)CCN2c2nc(C)cc(C(F)(F)F)c2C#N)c1
- pIC50 (second compound 0.0316 µM): 7.01
- pIC50 (second compound 0.1 µM): 7.02
- pIC50 (second compound 0.316 µM): 7.02
- pIC50 (second compound 1 µM): 7.00
- pIC50 (second compound 3.16 µM): 6.94
- pIC50 (second compound 10 µM): 6.95
- viability, T/C [1]: 84%
- viability, T/C [2]: 45.3%
- viability, T/C [3]: 35.2%
- viability, T/C [4]: 23.9%
- viability, T/C [5]: 17.8%
- viability, T/C [6]: 13.6%
- viability, T/C [7]: 101%
- viability, T/C [8]: 46.8%
- viability, T/C [9]: 30.3%
- viability, T/C [10]: 23.1%
- viability, T/C [11]: 23.2%
- viability, T/C [12]: 16%
- viability, T/C [13]: 81.7%
- viability, T/C [14]: 47%
- viability, T/C [15]: 31.9%
- viability, T/C [16]: 25.9%
- viability, T/C [17]: 18.2%
- viability, T/C [18]: 16.6%
- viability, T/C [19]: 84.5%
- viability, T/C [20]: 45.5%
- viability, T/C [21]: 32.7%
- viability, T/C [22]: 30.4%
- viability, T/C [23]: 21.7%
- viability, T/C [24]: 10.5%
- viability, T/C [25]: 92.5%
- viability, T/C [26]: 50.9%
- viability, T/C [27]: 31.8%
- viability, T/C [28]: 30.2%
- viability, T/C [29]: 24.6%
- viability, T/C [30]: 13.9%
- viability, T/C [31]: 74.9%
- viability, T/C [32]: 48.6%
- viability, T/C [33]: 38.2%
- viability, T/C [34]: 25%
- viability, T/C [35]: 20.8%
- viability, T/C [36]: 12.3%

Compound: O=C(c1cc(Cc2n[nH]c(=O)c3ccccc23)ccc1F)N1CCN(C(=O)C2CC2)CC1 + Nc1ccc(C#CCN(C(=O)Cc2ncc(C(F)(F)F)cc2C(F)(F)F)c2ccc(F)cc2)nn1
- pIC50 (second compound 0.0316 µM): < 5.00
- pIC50 (second compound 0.1 µM): < 5.00
- pIC50 (second compound 0.316 µM): < 5.00
- pIC50 (second compound 1 µM): < 5.00
- pIC50 (second compound 3.16 µM): < 5.00
- pIC50 (second compound 10 µM): < 5.00
- viability, T/C [1]: 114%
- viability, T/C [2]: 104%
- viability, T/C [3]: 101%
- viability, T/C [4]: 105%
- viability, T/C [5]: 121%
- viability, T/C [6]: 105%
- viability, T/C [7]: 112%
- viability, T/C [8]: 123%
- viability, T/C [9]: 98.6%
- viability, T/C [10]: 102%
- viability, T/C [11]: 117%
- viability, T/C [12]: 118%
- viability, T/C [13]: 113%
- viability, T/C [14]: 97.1%
- viability, T/C [15]: 104%
- viability, T/C [16]: 95.2%
- viability, T/C [17]: 109%
- viability, T/C [18]: 94.8%
- viability, T/C [19]: 119%
- viability, T/C [20]: 103%
- viability, T/C [21]: 105%
- viability, T/C [22]: 110%
- viability, T/C [23]: 112%
- viability, T/C [24]: 109%
- viability, T/C [25]: 111%
- viability, T/C [26]: 109%
- viability, T/C [27]: 111%
- viability, T/C [28]: 106%
- viability, T/C [29]: 118%
- viability, T/C [30]: 115%
- viability, T/C [31]: 122%
- viability, T/C [32]: 106%
- viability, T/C [33]: 130%
- viability, T/C [34]: 121%
- viability, T/C [35]: 129%
- viability, T/C [36]: 127%
